Assay [1] concerns the target human GLP-1 receptor (hGLP-1R) (Homo sapiens, UniProt P43220). In words: cAMP production (HTRF) in CHO cells expressing hGLP-1R. The class given is cell-based. On the set-up: expressed in transfected cells. The following applies: for EC50: cAMP in CHO hGLP-1R cells, geometric mean, read-out: hGLP-1R EC50; for % Relative Potency Ratio: % GLP-1R activity relative to GLP-1 / % GlucR activity relative to glucagon. In short, it runs like this: (§1)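 Read-out: HTRF cAMP (anti-cAMP cryptate donor, cAMP-d2 acceptor in conjugate/lysis buffer), converted to % Delta F and fitted by 4-parameter logistic for EC50. Cell densities were 1×10^5 cells/mL (hGLP-1R) or 2×10^5 cells/mL (hGCGR). Stimulation lasted 30 min at room temperature.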
On the technique in general: Cyclic AMP is a second messenger, typically raised through Gs and lowered through Gi signalling.

Assay [2] concerns the target human glucagon receptor (hGCGR) (Homo sapiens, UniProt P47871). The assay can be described thus: cAMP production (HTRF) in CHO cells expressing hGCGR. Type of assay: cell-based. To be noted: cAMP in CHO hGCGR cells, geometric mean, read-out: hGluc-R EC50. Set-up: expressed in transfected cells. In short, it runs like this: as §1
Where [3] appears, read: Table 7, peptides modified at position 20.
The mark [4] stands for this setting: Table 6, peptides modified at position 17.

Read-outs that look alike come from different tables or passages of the source. Starred links: 1 amine or outer side, 2 acyl side, 3 side chain; linkers in the order of their positions; H or OH if unused. Non-standard residues stand in square brackets, D forms with d. Residues, ends and D or L forms follow the SMILES beside them. Groups on a side chain read outwards from the residue. *: point of attachment. C18 diacid = O=C(O)CCCCCCCCCCCCCCCCC(=O)*; γGlu = O=C(O)[C@H](CCC(=O)[*:2])N[*:1]; αMeF = C[C@](N)(Cc1ccccc1)C(=O)O; AEEA = NCCOCCOCC(=O)O; Aib = CC(C)(N)C(=O)O

This is an account of results in patent US20250353891A1 (MEDIMMUNE LIMITED, priority 2022, published 2025).

Sequence of human GLP-1 receptor (hGLP-1R) (P43220 24-463): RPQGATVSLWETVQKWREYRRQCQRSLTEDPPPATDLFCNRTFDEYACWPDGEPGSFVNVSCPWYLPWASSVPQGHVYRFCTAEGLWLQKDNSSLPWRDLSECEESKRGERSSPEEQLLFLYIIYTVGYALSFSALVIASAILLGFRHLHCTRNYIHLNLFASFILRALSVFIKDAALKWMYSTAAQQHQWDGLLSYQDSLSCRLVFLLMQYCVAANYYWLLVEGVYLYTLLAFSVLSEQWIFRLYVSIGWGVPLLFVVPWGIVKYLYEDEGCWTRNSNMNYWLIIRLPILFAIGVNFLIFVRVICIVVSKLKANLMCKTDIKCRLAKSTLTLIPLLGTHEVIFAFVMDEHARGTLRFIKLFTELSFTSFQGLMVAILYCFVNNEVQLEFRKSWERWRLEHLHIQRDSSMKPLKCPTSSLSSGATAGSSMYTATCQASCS
Sequence of human glucagon receptor (hGCGR) (P47871 26-477): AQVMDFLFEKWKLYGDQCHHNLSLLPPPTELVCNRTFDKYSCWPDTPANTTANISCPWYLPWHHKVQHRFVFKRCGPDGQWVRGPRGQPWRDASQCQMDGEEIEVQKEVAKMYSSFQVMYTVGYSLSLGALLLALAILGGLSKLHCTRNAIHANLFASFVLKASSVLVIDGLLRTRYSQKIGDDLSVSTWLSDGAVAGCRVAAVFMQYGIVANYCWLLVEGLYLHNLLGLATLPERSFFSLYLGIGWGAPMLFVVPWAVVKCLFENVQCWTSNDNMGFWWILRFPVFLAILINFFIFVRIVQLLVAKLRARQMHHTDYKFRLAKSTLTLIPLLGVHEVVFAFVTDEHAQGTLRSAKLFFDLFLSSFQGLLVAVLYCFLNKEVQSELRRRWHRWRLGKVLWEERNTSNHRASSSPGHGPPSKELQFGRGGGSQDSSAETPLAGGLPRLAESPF

Take `CC(C)C[C@H](NC(=O)C(C)(C)NC(=O)[C@H](CCC(N)=O)NC(=O)[C@@H](NC(=O)[C@H](Cc1ccccc1)NC(=O)[C@H](CC(=O)O)NC(=O)[C@H](CCCCNC(=O)COCCOCCNC(=O)COCCOCCNC(=O)CC[C@H](NC(=O)CCCCCCCCCCCCCCCCC(=O)O)C(=O)O)NC(=O)[C@H](C)NC(=O)[C@H](C)NC(=O)[C@H](CCCNC(=N)N)NC(=O)[C@H](CO)NC(=O)[C@H](CC(=O)O)NC(=O)[C@H](CC(C)C)NC(=O)[C@](C)(Cc1ccccc1)NC(=O)[C@H](CCCCN)NC(=O)[C@H](CO)NC(=O)[C@@H](NC(=O)[C@H](CC(=O)O)NC(=O)[C@H](CO)NC(=O)[C@@H](NC(=O)[C@H](Cc1ccccc1)NC(=O)[C@@H](NC(=O)CNC(=O)[C@H](CCC(N)=O)NC(=O)C(C)(C)NC(=O)[C@@H](N)Cc1c[nH]cn1)[C@@H](C)O)[C@@H](C)O)C(C)C)C(C)C)C(=O)N[C@H](C(=O)N[C@@H](C)C(=O)N[C@H](C(N)=O)[C@@H](C)O)C(C)C` [Peptide 315]: the EC50 – broadly, the concentration that produces a half-maximal response – worked out at 0.0181 nM in assay [1] (setting [3]) and 5.85 nM in assay [2] (setting [3]). Moreover, the “% Relative Potency Ratio” value in assay [1] (Table 7) came out at 639.1.

For the compound `CC(C)C[C@H](NC(=O)[C@H](Cc1c[nH]c2ccccc12)NC(=O)[C@H](CCCNC(=N)N)NC(=O)[C@@H](NC(=O)[C@H](Cc1ccccc1)NC(=O)[C@H](CC(=O)O)NC(=O)[C@H](CCC(N)=O)NC(=O)[C@H](C)NC(=O)[C@H](CCCNC(=N)N)NC(=O)[C@H](CCCCNC(=O)COCCOCCNC(=O)COCCOCCNC(=O)CC[C@H](NC(=O)CCCCCCCCCCCCCCCCC(=O)O)C(=O)O)NC(=O)[C@H](CCCCN)NC(=O)[C@H](CC(=O)O)NC(=O)[C@H](CC(C)C)NC(=O)[C@](C)(Cc1ccccc1)NC(=O)[C@H](CCCCN)NC(=O)[C@H](CO)NC(=O)[C@@H](NC(=O)[C@H](CC(=O)O)NC(=O)[C@H](CO)NC(=O)[C@@H](NC(=O)[C@H](Cc1ccccc1)NC(=O)[C@@H](NC(=O)CNC(=O)[C@H](CCC(N)=O)NC(=O)C(C)(C)NC(=O)[C@@H](N)Cc1c[nH]cn1)[C@@H](C)O)[C@@H](C)O)C(C)C)C(C)C)C(=O)N[C@@H](CC(C)C)C(=O)NC(C)(C)C(=O)N[C@H](C(=O)N[C@@H](CCCCN)C(=O)O)[C@@H](C)O` [Peptide 424] (H-H[Aib]QGTFTSDVSK[αMeF]LDKK([AEEA-AEEA-γGlu-C18 diacid])RAQDFVRWLL[Aib]TK-OH; N-terminus assumed), the EC50 in assay [1] (setting [4]) is 0.0155 nM; in assay [2] (setting [4]) it was 0.129 nM. Further, the “% Relative Potency Ratio” value in assay [1] (Table 6) was determined as 16.5.

As for `CC(C)C[C@H](NC(=O)[C@H](Cc1c[nH]c2ccccc12)NC(=O)[C@H](CCC(N)=O)NC(=O)[C@@H](NC(=O)[C@H](Cc1ccccc1)NC(=O)[C@H](CC(=O)O)NC(=O)[C@H](CCCCNC(=O)COCCOCCNC(=O)COCCOCCNC(=O)CC[C@H](NC(=O)CCCCCCCCCCCCCCCCC(=O)O)C(=O)O)NC(=O)[C@H](C)NC(=O)[C@H](CCCNC(=N)N)NC(=O)[C@H](CCC(=O)O)NC(=O)[C@H](CO)NC(=O)[C@H](CC(=O)O)NC(=O)[C@H](CC(C)C)NC(=O)[C@](C)(Cc1ccccc1)NC(=O)[C@H](CCCCN)NC(=O)[C@H](CO)NC(=O)[C@@H](NC(=O)[C@H](CC(=O)O)NC(=O)[C@H](CO)NC(=O)[C@@H](NC(=O)[C@H](Cc1ccccc1)NC(=O)[C@@H](NC(=O)CNC(=O)[C@H](CCC(N)=O)NC(=O)C(C)(C)NC(=O)[C@@H](N)Cc1c[nH]cn1)[C@@H](C)O)[C@@H](C)O)C(C)C)C(C)C)C(=O)N[C@@H](CCC(=O)O)C(=O)N[C@@H](C)C(=O)NCC(=O)NCC(=O)O` [Peptide 521], the EC50 in assay [1] (setting [3]) was found to be 0.677 nM; in assay [2] (setting [3]) it was 10.1 nM. The “% Relative Potency Ratio” value in assay [1] (Table 7) came to 29.5.
